We go through 19 compounds from patent US11446299B2, “Carbazole EHop-016 derivatives as anticancer and anti-migratory agents” (UNIVERSITY OF PUERTO RICO, priority 2017, dated 2022).

One series deals with MCF-7 cancer cells. The series is described as follows: Sulforhodamine B (SRB) growth inhibition assay. The note with it: Homo sapiens, MCF7, 24 h treatment, mean of triplicate, SD <10%. It counts as cell-based. How it is done: (§1) Various compounds were tested to evaluate the dose response curve for effect on MCF-7 cancer cells and MDA-MB-231 cancer cells. MCF-7 and MDA-MB-231 cells were cultured in 10% Minimum Essential Medium Eagle (MEME) supplemented with Earle's Balanced Salt Solution (EBSS), Non-essential Amino acids (NEAA), Sodium pyruvate, Pen/Strep, L-glutamine and Fetal Bovine Serum (FBS) at 37° C. in 5% CO2.
(§2) Sulforhodamine B (SRB) Assay: A stock solution of compounds was prepared at 50 mM in 100% DMSO. For cells preparation, a flask of 75 cm^2 or 25 cm^2 were used for 2.6×10^5 cells or 1.44×10^5 cells respectively with an 80-90% of confluence. Cells were washed with PBS and trypsinized. The concentration of cells was determined using a 1:2 dilutions with Trypan Blue and a hemocytometer. After cell count, the concentration was adjusted to have a 1.9×10^4 cells/well. Approximately […] of cells suspension, compounds, control positive and control negative were added in triplicates to a 96 well plate. Positive controls used were ellipticine, doxorubicin, and/or vincristine, and the negative control was DMSO 0.1%. All compounds at 50, 25, 12.5, 6.3, and 1.6 μM were incubated with cells at 37° C. for 24 hrs. For fixation, cold TCA 50% was used and incubated at 4° C. for 1 hr. Wells were washed and dried prior to tincture with 100 μL of SRB 0.4%. To remove excess of SRB, acetic acid was used. For analysis, TRIS-BASE Solution (pH=10.5) was used and shacked prior to reading using an ELISA reader at 510 nm and the software SoftMax Pro 4.8.
(§3) For each compound, 50% growth inhibition (GI50) was calculated from Sigmoidal dose-response curves (variable-slope) that were generated with data obtained from experiments carried out in triplicates (GI50 values were generated with GraphPad Prism V. 6.02, GraphPad Software, Inc.). The results are presented in FIGS. 4A-4B (MCF-7 cancer cells) and FIGS. 5A-5B (MDA-MB-231 cancer cells).

Series [1] deals with MDA-MB-231 breast cancer cells. The series is described as follows: Wound healing assay (scratch method), cell migration. It counts as cell-based, human. Conditions: Homo sapiens, MDA-MB-231; for activity at 10 µM: percent relative migration at 10 μM after 24 h, relative to control; for inhibition at 10 µM: read-out: anti-migratory activity (inhibition of migration). How it is done:
The experimental data of anti-migratory activities for compounds 3a-d and 4a-f were obtained using MDA-MB-231 breast cancer cells. For the migration assay, a wound-healing assay (scratch-wound assay) was utilized in the presence of vehicle (0.02% DMSO) or compounds at […].
Prior to assays, cells were grown until 80-90% confluence was observed. A 75 cm2 flask was used for 2.6×10^5 cells/mL in 10 mL and for a 25 cm2 flask 1.44×10^5 cells/mL in 5 mL. The cells were washed with PBS to remove all traces of FBS. 2 mL was added for a 25 cm2 flasks or 4 mL for a 75 cm2 flasks trypsin, and incubated 5-10 min at 37° C. At the end of the incubation time, cells were re-suspended and counted with hemocytometer using 1:2 dilutions with Trypan blue. Subsequently, cell viability was calculated. In a 12 multiwell plate, the plastic pattern was used to draw a fine space with a fine marker on the bottom of the plate. Cells were seeded at 1.5-2.2×10^5 cells/mL in 1 mL and incubated for 24 h. Cells were then rinsed with PBS and incubated in starving media (0.5% FBS) overnight. All controls and drugs were tested in triplicate. The negative control for each drug was prepared according to the drug's DMSO concentration.
Drugs were diluted and the final concentration at each well […]. The wound was made using a sterile pipette tip of […]. Cells were then rinsed very gently with media without FBS and media with negative controls was added. After a 24 h incubation, the gap distance was evaluated using the software Lumera Infinity Analyze 6.4.0. Pictures were taken at 0, 8, 12 and 24 h using a 10× objective. The percentage of migration was calculated using the following formula: 100−[(X0/X0)]*100 for time 0 h measurements 100−[(X24/X0)]*100 for time 24 h measurements
The experimental data of anti-migratory activities for compounds 3a-d and 4a-f were obtained using MDA-MB-231 breast cancer cells, and results are summarized in Table 1. For the migration assay, we used a wound-healing assay (scratch-wound assay)^22 in the presence of vehicle (0.02% DMSO) or compounds at 10 μM (FIG. 6). […] However, compounds 3a, 3c, and 4a-f inhibited migration in the range of 1-9%.
An additional example of a compounds with modification in building block C was synthesized via a different procedure as represented in Scheme 2B (see FIG. 11B). The compounds that were synthesized were tested for their biological activity by determination of their cytotoxicity in MDA-MB-231 breast cancer cell lines as shown in Table 5. The cytotoxicity's are expressed as IC50, which indicates the concentration at which 50% of the cell growth is inhibited. Furthermore, the inhibition of cell migration was tested at a concentration of 0.2×IC50, or, when the IC50 was >50 μM at a concentration of 10 μM. For comparison, Table 5 also includes the Lipinski and drug-likeness parameters as calculated via the MolSoft platform.
Migration assays were performed via the Scratch Method as described previously.

The next series relates to MDA-MB-231 cancer cells. The series is described as follows: Sulforhodamine B (SRB) growth inhibition assay. It counts as cell-based, human. Conditions: for GI50: Homo sapiens, MDA-MB-231, SRB assay, 24 h treatment, mean of triplicate, SD <10%; for anti-proliferative activity / cytotoxicity in words: MDA-MB-231, concentrations ≤50 μM. How it is done:
as §1, §2, §3

Where two headings read alike, the source gives them in different places.

Consider `CCN(CC)CCCC(C)NC(=O)c1cccnc1Nc1ccc2c(c1)c1ccccc1n2CC` (stereo not shown) [Compound 4d, N-(4-Diethylamino-1-methyl-butyl)-2-(9-ethyl-9H-carbazol-3-ylamino)-nicotinamide], for which the GI50 is 13 µM in the series with MCF-7 cancer cells and 18 µM with MDA-MB-231 cancer cells. This compound registered an activity at 10 µM in series [1] of 91 ± 14.1%.

For `CCn1c2ccccc2c2cc(NC(=O)c3nccnc3C(=O)NCCCn3ccnc3)ccc21` [Compound 14c, Pyrazine-2,3-dicarboxylic acid 2-[(9-ethyl-9H-carbazol-3-yl)-amide]-3-[(3-imidazol-1-yl-propyl)-amide]], the GI50 in the series on MCF-7 cancer cells and with MDA-MB-231 cancer cells was over 50 µM throughout. This compound also came in with an activity at 10 µM in series [1] of 99 ± 4.5%.

With `CCn1c2ccccc2c2cc(NC(=O)c3cccnc3N3CCN(C(C)=O)CC3)ccc21` [Compound 3a, 2-(4-acetylpiperazin-1-yl)-N-(9-ethyl-9H-carbazol-3-yl)nicotinamide], the 50% growth inhibitory concentration (GI50) with MCF-7 cancer cells and in the series on MDA-MB-231 cancer cells was over 50 µM throughout. The compound further yielded an activity at 10 µM in series [1] of 93 ± 11.7%.

For `CCn1c2ccccc2c2cc(NC(=O)c3cccnc3N3CCOCC3)ccc21` [Compound 3b, N-(9-ethyl-9H-carbazol-3-yl)-2-morpholinonicotinamide], the GI50 in the series with MCF-7 cancer cells and in the series with MDA-MB-231 cancer cells was over 50 µM in each case. Moreover, the inhibition at 10 µM in series [1] was determined as 32%; in series [1] (at 10 μM, 24 h), 32%. The same compound gave an activity at 10 µM in series [1] of 68 ± 10.5%. For the same compound, the “anti-proliferative activity / cytotoxicity in words” value with MDA-MB-231 cancer cells is listed as “no anti-proliferative activity”. For the same compound, the “anti-proliferative activity in words” value in the series on MDA-MB-231 cancer cells (MDA-MB-231 at <50 pM as printed) was “minor anti-proliferative activity”.

`CCn1c2ccccc2c2cc(C(=O)Nc3cccnc3NCCCN3CCOCC3)ccc21` [Compound 11a, 9-Ethyl-9H-carbazole-3-carboxylic Acid [2-(3-morpholin-4-yl-propylamino)-pyridin-3-yl]-amide]: the GI50 with MCF-7 cancer cells came out at 32 µM; with MDA-MB-231 cancer cells it was 39 µM. In series [1], this compound registered an activity at 10 µM of 89 ± 10.1%.

For `CCn1c2ccccc2c2cc(NC(=O)C3CCCCC3C(=O)NCCN3CCOCC3)ccc21` (stereo not shown) [Compound 14g], the GI50 in the series on MCF-7 cancer cells and in the series on MDA-MB-231 cancer cells was over 50 µM throughout. Further, the activity at 10 µM in series [1] amounted to 99 ± 1.63%.

In the case of `CCn1c2ccccc2c2cc(Nc3ncccc3NC(=O)CCN3CCCCC3)ccc21` [Compound 7a, N-[2-(9-Ethyl-9H-carbazol-3-ylamino)-pyridin-3-yl]-3-piperidin-1-yl-propionamide], the GI50 in the series with MCF-7 cancer cells amounted to 15 µM; with MDA-MB-231 cancer cells it was 23 µM. This compound registered an activity at 10 µM in series [1] of 99 ± 4.29%.

Take `CCn1c2ccccc2c2cc(Nc3ncccc3C(=O)Nc3cc(OC)c(OC)c(OC)c3)ccc21` [Compound 4f, 2-((9-ethyl-9H-carbazol-3-yl)amino)-N-(3,4,5-trimethoxyphenyl)nicotinamide]: the concentration for 50% growth inhibition (GI50) in the series with MCF-7 cancer cells and in the series on MDA-MB-231 cancer cells was over 50 µM in each case. This compound also came in with an activity at 10 µM in series [1] of 92 ± 8.55%.

In the case of `CCn1c2ccccc2c2cc(Nc3ncccc3C(=O)NCCCn3ccnc3)ccc21` [Compound 4c, N-(3-(1H-imidazol-1-yl)propyl)-2-((9-ethyl-9H-carbazol-3-yl)amino)nicotinamide], the values for the GI50 in the series on MCF-7 cancer cells and in the series with MDA-MB-231 cancer cells were 27 µM and over 50 µM, respectively. Moreover, in series [1], the activity at 10 µM amounted to 93 ± 2.01%.

For the compound `CCn1c2ccccc2c2cc(NC(=O)c3nccnc3C(=O)NCCOC)ccc21` [Compound 14d, N^2-(9-ethyl-9H-carbazol-3-yl)-N^3-(2-methoxyethyl)pyrazine-2,3-dicarboxamide], the concentration for 50% growth inhibition (GI50) in the series with MCF-7 cancer cells and in the series on MDA-MB-231 cancer cells was over 50 µM in each case. Further, the activity at 10 µM in series [1] amounted to 100 ± 5.2%.

Consider `CCn1c2ccccc2c2cc(Nc3ncccc3C(=O)NCCCN3CCOCC3)ccc21` [Compound 4a, 2-(9-ethyl-9H-carbazol-3-ylamino)-N-(3-norpholinopropyl)nicotinamide], for which the results for the GI50 in the series on MCF-7 cancer cells and with MDA-MB-231 cancer cells were 28 µM and over 50 µM, respectively. In addition, the activity at 10 µM in series [1] worked out at 99 ± 1.28%.

With `CCn1c2ccccc2c2cc(NC(=O)c3ccccc3C(=O)NCCOC)ccc21` [Compound 14e, N^1-(9-ethyl-9H-carbazol-3-yl)-N^2-(2-methoxyethyl)phthalamide], the concentration for 50% growth inhibition (GI50) in the series with MCF-7 cancer cells and in the series with MDA-MB-231 cancer cells was over 50 µM throughout. Also, the activity at 10 µM in series [1] worked out at 99 ± 2.57%.

With `CCn1c2ccccc2c2cc(NC(=O)c3ccccc3C(=O)NCCO)ccc21` [Compound 14f, N^1-(9-ethyl-9H-carbazol-3-yl)-N^2-(2-hydroxyethyl)phthalamide], the GI50 in the series with MCF-7 cancer cells and with MDA-MB-231 cancer cells was over 50 µM throughout. Moreover, in series [1], the activity at 10 µM turned out to be 98 ± 1.83%.

As to `CCn1c2ccccc2c2cc(Nc3ncccc3NC(=O)c3cccnc3)ccc21` [Compound 7b, N-(2-((9-ethyl-9H-carbazol-3-yl)amino)pyridin-3-yl)nicotinamide], the values for the GI50 in the series with MCF-7 cancer cells and with MDA-MB-231 cancer cells were 41 µM and 31 µM, respectively. The compound also displayed an activity at 10 µM in series [1] of 81 ± 11.1%.

Regarding `CCN(CC)CCNC(=O)c1cccnc1Nc1ccc2c(c1)c1ccccc1n2CC` [Compound 4e, N-(2-(diethylamino)ethyl)-2-((9-ethyl-9H-carbazol-3-yl)amino)nicotinamide], the GI50 with MCF-7 cancer cells came out at 14 µM; in the series on MDA-MB-231 cancer cells, 18 µM. Also, the activity at 10 µM in series [1] was determined as 99 ± 4.12%.

Regarding `CCn1c2ccccc2c2cc(Nc3ncccc3C(=O)NCCN3CCN(C(=O)OC(C)(C)C)CC3)ccc21` [Compound 4b], the GI50 in the series on MCF-7 cancer cells and with MDA-MB-231 cancer cells was over 50 µM throughout. Also, in series [1], the activity at 10 µM came out at 95 ± 9.8%.

In the case of `CCn1c2ccccc2c2cc(NC(=O)c3cccnc3NCCCN3CCOCC3)ccc21` [Compound 3d], the 50% growth inhibitory concentration (GI50) with MCF-7 cancer cells was over 50 µM; in the series on MDA-MB-231 cancer cells, 19 µM. The inhibition at 10 µM in series [1] was found to be 24%; in series [1] (at 10 μM, 24 h) it was 24%. For the same compound, the activity at 10 µM in series [1] was determined as 76 ± 7.87%.

Take `CCn1c2ccccc2c2cc(Nc3ncccc3NCC(=O)N3CCOCC3)ccc21` [Compound 7c]: halving of growth in the series with MCF-7 cancer cells (GI50) required 23 µM. In addition, the activity at 10 µM in series [1] was 81 ± 8.27%. In the series on MDA-MB-231 cancer cells, the GI50 was over 50 µM and the “anti-proliferative activity / cytotoxicity in words” value was “minimal cytotoxicity”.

With `CCn1c2ccccc2c2cc(NC(=O)c3nccnc3C(=O)NCCCN3CCOCC3)ccc21` [Compound 14b, N^2-(9-ethyl-9H-carbazol-3-yl)-N^3-(3-morpholinopropyl)pyrazine-2,3-dicarboxamide], the GI50 in the series on MCF-7 cancer cells and in the series on MDA-MB-231 cancer cells was over 50 µM in each case. Also, the activity at 10 µM in series [1] came to 94 ± 5.87%.
